Measured values reported in ChEMBL document CHEMBL3390839, “Triazolopyrimidinones as -secretase modulators: structureactivity relationship, modulator profile, and in vivo profiling” (Medchemcomm, 2013).
Converted amounts (≈) assume the structure as drawn.

What was measured:
[1] = biological target: Gamma-secretase; assay: Inhibition of human gamma-secretase in HEK-APPswe cells assessed as amyloid beta42 production by electrochemiluminescence assay; format: cell-based
[2] = Inhibition of gamma-secretase in mouse primary cortical neurons cells assessed as amyloid beta42 production after 5 days by ELISA; format: cell-based, Cerebral cortex neuron; conditions: for IC50: Mus musculus, Cerebral cortex neuron, 120 h; for pIC50: cerebral cortex neuron
[3] = biological target: Voltage-gated inwardly rectifying potassium channel KCNH2 (Homo sapiens, UniProt Q12809); assay: Inhibition of human ERG
Voltage-gated inwardly rectifying potassium channel KCNH2, sequence (Q12809 whole entry): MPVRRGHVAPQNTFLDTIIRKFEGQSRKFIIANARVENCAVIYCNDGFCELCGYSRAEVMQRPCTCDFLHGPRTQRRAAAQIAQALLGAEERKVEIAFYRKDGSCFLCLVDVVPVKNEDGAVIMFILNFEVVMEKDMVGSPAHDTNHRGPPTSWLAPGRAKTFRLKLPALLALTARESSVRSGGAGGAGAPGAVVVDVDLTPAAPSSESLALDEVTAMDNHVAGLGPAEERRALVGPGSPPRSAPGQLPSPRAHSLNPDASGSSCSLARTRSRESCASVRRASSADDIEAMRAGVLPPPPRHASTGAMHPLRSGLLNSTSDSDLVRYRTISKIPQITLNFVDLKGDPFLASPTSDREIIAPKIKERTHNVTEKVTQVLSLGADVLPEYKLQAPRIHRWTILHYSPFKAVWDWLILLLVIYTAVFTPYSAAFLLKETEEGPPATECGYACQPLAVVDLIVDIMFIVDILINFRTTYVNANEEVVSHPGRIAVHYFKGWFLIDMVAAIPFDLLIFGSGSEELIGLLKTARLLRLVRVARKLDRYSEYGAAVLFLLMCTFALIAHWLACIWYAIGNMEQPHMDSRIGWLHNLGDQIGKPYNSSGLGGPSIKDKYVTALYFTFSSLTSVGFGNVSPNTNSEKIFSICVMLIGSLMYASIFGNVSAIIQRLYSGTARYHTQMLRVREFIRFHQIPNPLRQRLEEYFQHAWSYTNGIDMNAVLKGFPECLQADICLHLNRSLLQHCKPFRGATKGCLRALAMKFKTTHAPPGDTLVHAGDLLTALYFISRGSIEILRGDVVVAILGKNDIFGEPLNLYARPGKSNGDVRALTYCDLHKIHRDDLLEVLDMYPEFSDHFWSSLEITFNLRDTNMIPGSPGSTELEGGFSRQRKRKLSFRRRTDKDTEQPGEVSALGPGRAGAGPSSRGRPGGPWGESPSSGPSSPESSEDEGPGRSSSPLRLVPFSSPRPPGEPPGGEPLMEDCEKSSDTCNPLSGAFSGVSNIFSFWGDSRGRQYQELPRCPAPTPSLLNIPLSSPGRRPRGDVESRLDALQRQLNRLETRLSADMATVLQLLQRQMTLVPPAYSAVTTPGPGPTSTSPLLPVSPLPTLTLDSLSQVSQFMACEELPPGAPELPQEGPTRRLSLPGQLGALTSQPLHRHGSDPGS

[4] = test system: Liver microsome; assay: Intrinsic clearance in human liver microsomes measured pre ug of protein; format: ADME
[5] = Solubility of the compound; format: physicochemical

| pIC50 [1] | IC50 [2] | CLH [4] | solubility ([5]; read-out: solubility) | pIC50 [2] | solubility [5] | SMILES | IC50 [3] |
| --- | --- | --- | --- | --- | --- | --- | --- |
| 8 | 39.8 nM | 114 µL/min | < 1 µM | – | – | COc1cc(Nc2nc3n(n2)CCC(=O)N3Cc2ccccc2C)ccc1-n1cnc(C)c1 | 13000 nM |
| 7.4 | 251 nM | 36 µL/min | 2 µM (≈ 0.831 µg/mL) | – | – | COc1cc(Nc2nc3n(n2)CCC(=O)N3c2ccccc2)ccc1-n1cnc(C)c1 | 33000 nM |
| 7.7 | 100 nM | – | – | – | – | COc1cc(Nc2nc3n(n2)CCCC3c2ccc(F)cc2)ccc1-c1cnnc(C)c1 (stereo unspecified) | – |
| 7.4 | – | – | – | 7 | – | COc1cc(Nc2nc3n(n2)CCCC3c2ccc(F)cc2)ccc1-n1cnc(C)n1 (stereo in doubt; 14A) | – |
| 7.4 | – | 22 µL/min | < 1 µM | – | – | COc1cc(Nc2nc3n(n2)CCC(=O)N3Cc2ccccc2Cl)ccc1-n1cnc(C)n1 | 33000 nM |
| – | – | 66 µL/min | < 1 µM | – | – | COc1cc(Nc2nc3n(n2)CCC(=O)N3Cc2ccccc2C)ccc1-c1ccc(C)nn1 | 33000 nM |
| – | 158 nM | 47 µL/min | 380 µM (≈ 162 µg/mL) | – | – | COc1cc(Nc2nc3n(n2)C(C)CCN3CCC(C)(C)O)ccc1-n1cnc(C)c1 (stereo unspecified) | 32000 nM |
| 5.9 | – | – | – | – | – | Cc1nnc(-c2ccc(Nc3nc4n(n3)CCCC4c3ccc(F)cc3)cc2)o1 (stereo unspecified) | – |
| – | 100 nM | 19 µL/min | 290 µM (≈ 125 µg/mL) | – | – | COc1cc(Nc2nc3n(n2)CC(O)CN3Cc2ccccc2)ccc1-n1cnc(C)c1 (stereo unspecified) | 28000 nM |
| 5.8 | – | – | – | – | – | N#CCc1ccc(Nc2nc3n(n2)CCCC3c2ccc(F)cc2)cc1 (stereo unspecified) | – |
| 7.9 | 25.1 nM | 29 µL/min | < 1 µM | – | – | COc1cc(Nc2nc3n(n2)C2(CC2)CC(=O)N3Cc2ccc(F)cc2)ccc1-n1cnc(C)c1 | – |

Further lines, the molecule ahead of its results:

| SMILES | pIC50 [1] | IC50 [2] | CLH [4] | solubility ([5]; read-out: solubility) | pIC50 [2] | solubility [5] | IC50 [3] |
| --- | --- | --- | --- | --- | --- | --- | --- |
| COc1cc(Nc2nc3n(n2)CCC(=O)N3Cc2ccccc2C)ccc1-c1cnc(C)nc1 | 7.2 | – | 94 µL/min | < 1 µM | – | – | 11000 nM |
| COc1cc(Nc2nc3n(n2)CC(C)C(=O)N3Cc2ccccc2)ccc1-n1cnc(C)c1 (stereo unspecified) | – | 50.1 nM | 84 µL/min | 2 µM (≈ 0.887 µg/mL) | – | – | 5600 nM |
| COc1cc(Nc2nc3n(n2)CCC(=O)N3Cc2ccccc2)ccc1-n1cnc(C)n1 | 7 | 794 nM | 16 µL/min | 8 µM (≈ 3.44 µg/mL) | – | – | 17000 nM |
| COc1cc(Nc2nc3n(n2)C(C2CC2)CCN3CC(C)(C)O)ccc1-n1cnc(C)c1 (stereo in doubt; 42B) | – | – | 21 µL/min | 42 µM (≈ 18.4 µg/mL) | 6.9 | – | 33000 nM |
| COc1cc(Nc2nc3n(n2)C(C2CC2)CCN3CCC(C)(C)O)ccc1-n1cnc(C)c1 (stereo unspecified) | – | 100 nM | 26 µL/min | 69 µM (≈ 31.2 µg/mL) | – | – | 16000 nM |
| COc1nc(Nc2nc3n(n2)CCCC3c2ccc(F)cc2)ccc1-n1cnc(C)c1 (stereo unspecified) | 7.2 | – | – | – | – | – | – |
| COc1cc(Nc2nc3n(n2)CCCC3c2ccc(F)cc2)ccc1-c1nc(C)no1 (stereo unspecified) | 6.8 | – | – | – | – | – | – |
| COc1cc(Nc2nc3n(n2)CCC(=O)N3Cc2ccccc2C)ccc1-c1cc(C)cnn1 | 5 | – | 27 µL/min | 170 µM (≈ 77.4 µg/mL) | – | – | 33000 nM |
| COc1cc(Nc2nc3n(n2)C(C)CC(=O)N3Cc2ccccc2)ccc1-n1cnc(C)c1 (stereo in doubt; 19A) | 7.7 | – | 73 µL/min | – | 6.8 | 1 µM (≈ 0.444 µg/mL) | – |
| COc1cc(Nc2nc3n(n2)CC(C)(O)CN3Cc2ccccc2)ccc1-n1cnc(C)c1 (stereo unspecified) | – | 126 nM | 17 µL/min | 160 µM (≈ 71.3 µg/mL) | – | – | 23000 nM |
| COc1cc(Nc2nc3n(n2)CCCC3c2ccc(F)cc2)ccc1-n1cnc(C)n1 (stereo in doubt; 14B) | 7 | – | – | – | 6.5 | – | – |
| COc1cc(Nc2nc3n(n2)C(C)CC(=O)N3Cc2cc(F)ccc2F)ccc1-n1cnc(C)c1 (stereo unspecified) | 7.7 | 20 nM | 70 µL/min | < 1 µM | – | – | – |
